# Measurements as given in ChEMBL document CHEMBL1148775, “Synthesis and in vivo evaluation of fluorine-18 and iodine-123 labeled 2beta-carbo(2-fluoroethoxy)-3beta-(4'-((Z)-2-iodoethenyl)phenyl)nortropane as a candidate serotonin transporter imaging agent” (J Med Chem, 2007).
# Experiments:
# [1] = Partition coefficient, log P at pH 7.4; format: physicochemical; settings: octanol/water
# [2] = molecular target: Sodium-dependent noradrenaline transporter (Homo sapiens, UniProt P23975); test: Binding affinity to human NET expressed in HEK293 cells; format: cell-based
# [3] = molecular target: Sodium-dependent serotonin transporter (Homo sapiens, UniProt P31645); test: Binding affinity to human SERT expressed in HEK293 cells; format: cell-based
# [4] = molecular target: Sodium-dependent dopamine transporter (Homo sapiens, UniProt Q01959); test: Binding affinity to human DAT expressed in HEK293 cells; format: cell-based
# [5] = Ratio of drug level in thalamus to cerebellum in cynomolgus monkey after 235 mins; format: ADME, tissue-based, Macaca fascicularis; settings: in vivo
# [6] = Ratio of drug level in occipital cortex to cerebellum in cynomolgus monkey after 235 mins; format: ADME, tissue-based, Macaca fascicularis; settings: in vivo
# [7] = Ratio of drug level in midbrain to cerebellum in cynomolgus monkey after 235 mins; format: ADME, tissue-based, Macaca fascicularis; settings: in vivo
# [8] = Ratio of drug level in putamen to cerebellum in cynomolgus monkey after 235 mins; format: ADME, tissue-based, Macaca fascicularis; settings: in vivo
# [9] = Ratio of drug level in caudate to cerebellum in cynomolgus monkey after 235 mins; format: ADME, tissue-based, Macaca fascicularis; settings: in vivo
# [10] = Ratio of drug level in medulla to cerebellum in cynomolgus monkey after 235 mins; format: ADME, tissue-based, Macaca fascicularis; settings: in vivo
# [11] = Biodistribution in iv dosed Sprague-Dawley rat striatum in presence of reboxetine at 6 mg/kg after 60 mins; format: ADME, organism-based; parameters: dose 6 mg/kg, route intravenous; settings: read-out: Drug uptake
# [12] = Biodistribution in iv dosed Sprague-Dawley rat cerebellum in presence of citalopram at 6 mg/kg after 60 mins; format: ADME, organism-based; parameters: dose 6 mg/kg, route intravenous; settings: read-out: Drug uptake
# [13] = Biodistribution in iv dosed Sprague-Dawley rat striatum in presence of citalopram at 6 mg/kg after 60 mins; format: ADME, organism-based; parameters: dose 6 mg/kg, route intravenous; settings: read-out: Drug uptake
# Cerebellum = test: Biodistribution in iv dosed Sprague-Dawley rat cerebellum after 5 mins; format: ADME, organism-based; settings: in vivo
# [14] = Biodistribution in iv dosed Sprague-Dawley rat pons in presence of reboxetine at 6 mg/kg after 60 mins; format: ADME, organism-based; parameters: dose 6 mg/kg, route intravenous; settings: read-out: Drug uptake
# [15] = Biodistribution in iv dosed Sprague-Dawley rat hippocampus in presence of RTI-113 at 6 mg/kg after 60 mins; format: ADME, organism-based; parameters: dose 6 mg/kg, route intravenous; settings: read-out: Drug uptake
# [16] = Biodistribution in iv dosed Sprague-Dawley rat occipital cortex in presence of reboxetine at 6 mg/kg after 60 mins; format: ADME, organism-based; parameters: dose 6 mg/kg, route intravenous; settings: read-out: Drug uptake
# [17] = Biodistribution in iv dosed Sprague-Dawley rat cerebellum after 60 mins; format: ADME, organism-based; settings: read-out: Drug uptake
# [18] = Biodistribution in iv dosed Sprague-Dawley rat striatum in presence of RTI-113 at 6 mg/kg after 60 mins; format: ADME, organism-based; parameters: dose 6 mg/kg, route intravenous; settings: read-out: Drug uptake
# [19] = Biodistribution in iv dosed Sprague-Dawley rat hypothalamus in presence of RTI-113 at 6 mg/kg after 60 mins; format: ADME, organism-based; parameters: dose 6 mg/kg, route intravenous; settings: read-out: Drug uptake
# [20] = Biodistribution in iv dosed Sprague-Dawley rat striatum in after 60 mins; format: ADME, organism-based; settings: read-out: Drug uptake
# [21] = Biodistribution in iv dosed Sprague-Dawley rat pons in presence of RTI-113 at 6 mg/kg after 60 mins; format: ADME, organism-based; parameters: dose 6 mg/kg, route intravenous; settings: read-out: Drug uptake
# [22] = Biodistribution in iv dosed Sprague-Dawley rat hypothalamus in presence of citalopram at 6 mg/kg after 60 mins; format: ADME, organism-based; parameters: dose 6 mg/kg, route intravenous; settings: read-out: Drug uptake
# [23] = Biodistribution in iv dosed Sprague-Dawley rat pons after 60 mins; format: ADME, organism-based; settings: read-out: Drug uptake
# [24] = Biodistribution in iv dosed Sprague-Dawley rat pre frontal cortex after 60 mins; format: ADME, organism-based; settings: prefrontal cortex, read-out: Drug uptake
# [25] = Biodistribution in iv dosed Sprague-Dawley rat hypothalamus after 60 mins; format: ADME, organism-based; settings: read-out: Drug uptake
# [26] = Biodistribution in iv dosed Sprague-Dawley rat hippocampus after 60 mins; format: ADME, organism-based; settings: read-out: Drug uptake
# [27] = Biodistribution in iv dosed Sprague-Dawley rat cerebellum in presence of reboxetine at 6 mg/kg after 60 mins; format: ADME, organism-based; parameters: dose 6 mg/kg, route intravenous; settings: read-out: Drug uptake
# [28] = Biodistribution in iv dosed Sprague-Dawley rat occipital cortex in presence of citalopram at 6 mg/kg after 60 mins; format: ADME, organism-based; parameters: dose 6 mg/kg, route intravenous; settings: read-out: Drug uptake
# [29] = Biodistribution in iv dosed Sprague-Dawley rat occipital cortex in presence of RTI-113 at 6 mg/kg after 60 mins; format: ADME, organism-based; parameters: dose 6 mg/kg, route intravenous; settings: read-out: Drug uptake
# [30] = Biodistribution in iv dosed Sprague-Dawley rat pre frontal cortex in presence of reboxetine at 6 mg/kg after 60 mins; format: ADME, organism-based; parameters: dose 6 mg/kg, route intravenous; settings: prefrontal cortex, read-out: Drug uptake
# [31] = Biodistribution in iv dosed Sprague-Dawley rat pre frontal cortex in presence of citalopram at 6 mg/kg after 60 mins; format: ADME, organism-based; parameters: dose 6 mg/kg, route intravenous; settings: prefrontal cortex, read-out: Drug uptake
# [32] = Biodistribution in iv dosed Sprague-Dawley rat hippocampus in presence of reboxetine at 6 mg/kg after 60 mins; format: ADME, organism-based; parameters: dose 6 mg/kg, route intravenous; settings: read-out: Drug uptake
# [33] = Biodistribution in iv dosed Sprague-Dawley rat pons in presence of citalopram at 6 mg/kg after 60 mins; format: ADME, organism-based; parameters: dose 6 mg/kg, route intravenous; settings: read-out: Drug uptake
# [34] = Biodistribution in iv dosed Sprague-Dawley rat hippocampus in presence of citalopram at 6 mg/kg after 60 mins; format: ADME, organism-based; parameters: dose 6 mg/kg, route intravenous; settings: read-out: Drug uptake
# [35] = Biodistribution in iv dosed Sprague-Dawley rat hypothalamus in presence of reboxetine at 6mg/kg after 60 mins; format: ADME, organism-based; settings: read-out: Drug uptake
# [36] = Biodistribution in iv dosed Sprague-Dawley rat pre frontal cortex in presence of RTI-113 at 6 mg/kg after 60 mins; format: ADME, organism-based; parameters: dose 6 mg/kg, route intravenous; settings: prefrontal cortex, read-out: Drug uptake
# [37] = Biodistribution in iv dosed Sprague-Dawley rat occipital cortex after 60 mins; format: ADME, organism-based; settings: read-out: Drug uptake
# [38] = Biodistribution in iv dosed Sprague-Dawley rat cerebellum in presence of RTI-113 at 6 mg/kg after 60 mins; format: ADME, organism-based; parameters: dose 6 mg/kg, route intravenous; settings: read-out: Drug uptake
# Sodium-dependent dopamine transporter, sequence (Q01959 whole entry): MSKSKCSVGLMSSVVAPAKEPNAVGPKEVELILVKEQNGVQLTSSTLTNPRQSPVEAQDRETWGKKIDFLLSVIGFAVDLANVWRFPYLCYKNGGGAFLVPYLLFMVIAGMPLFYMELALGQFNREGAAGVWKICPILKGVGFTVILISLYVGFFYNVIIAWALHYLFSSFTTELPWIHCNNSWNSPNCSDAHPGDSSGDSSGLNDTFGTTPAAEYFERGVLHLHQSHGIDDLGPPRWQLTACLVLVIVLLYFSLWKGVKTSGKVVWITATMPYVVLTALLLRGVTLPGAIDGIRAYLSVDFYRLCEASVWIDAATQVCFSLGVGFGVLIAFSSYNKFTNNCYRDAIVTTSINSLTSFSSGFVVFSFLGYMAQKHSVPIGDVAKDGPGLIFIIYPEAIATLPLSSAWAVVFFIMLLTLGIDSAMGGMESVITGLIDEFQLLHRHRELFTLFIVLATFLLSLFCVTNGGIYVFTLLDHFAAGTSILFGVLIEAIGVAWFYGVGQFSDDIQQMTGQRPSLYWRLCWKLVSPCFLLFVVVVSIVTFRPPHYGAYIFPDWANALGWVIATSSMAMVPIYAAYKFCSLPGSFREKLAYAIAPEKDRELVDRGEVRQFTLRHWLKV
# Sodium-dependent serotonin transporter, sequence (P31645 whole entry): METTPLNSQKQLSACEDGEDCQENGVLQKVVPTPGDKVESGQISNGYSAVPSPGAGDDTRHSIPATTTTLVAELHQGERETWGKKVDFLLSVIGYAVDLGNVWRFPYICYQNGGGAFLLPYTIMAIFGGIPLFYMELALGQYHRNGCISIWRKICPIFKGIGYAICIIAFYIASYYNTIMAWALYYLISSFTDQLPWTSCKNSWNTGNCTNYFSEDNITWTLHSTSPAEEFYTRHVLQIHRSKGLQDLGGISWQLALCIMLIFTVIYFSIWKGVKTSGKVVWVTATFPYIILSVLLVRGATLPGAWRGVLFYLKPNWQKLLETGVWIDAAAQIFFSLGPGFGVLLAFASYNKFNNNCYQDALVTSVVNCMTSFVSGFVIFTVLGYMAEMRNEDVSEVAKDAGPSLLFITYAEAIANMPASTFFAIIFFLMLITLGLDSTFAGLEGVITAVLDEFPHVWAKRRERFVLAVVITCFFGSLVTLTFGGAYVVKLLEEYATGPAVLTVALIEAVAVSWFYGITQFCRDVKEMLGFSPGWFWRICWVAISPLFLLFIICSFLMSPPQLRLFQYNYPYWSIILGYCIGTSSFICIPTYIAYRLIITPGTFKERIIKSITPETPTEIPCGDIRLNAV
# Sodium-dependent noradrenaline transporter, sequence (P23975 whole entry): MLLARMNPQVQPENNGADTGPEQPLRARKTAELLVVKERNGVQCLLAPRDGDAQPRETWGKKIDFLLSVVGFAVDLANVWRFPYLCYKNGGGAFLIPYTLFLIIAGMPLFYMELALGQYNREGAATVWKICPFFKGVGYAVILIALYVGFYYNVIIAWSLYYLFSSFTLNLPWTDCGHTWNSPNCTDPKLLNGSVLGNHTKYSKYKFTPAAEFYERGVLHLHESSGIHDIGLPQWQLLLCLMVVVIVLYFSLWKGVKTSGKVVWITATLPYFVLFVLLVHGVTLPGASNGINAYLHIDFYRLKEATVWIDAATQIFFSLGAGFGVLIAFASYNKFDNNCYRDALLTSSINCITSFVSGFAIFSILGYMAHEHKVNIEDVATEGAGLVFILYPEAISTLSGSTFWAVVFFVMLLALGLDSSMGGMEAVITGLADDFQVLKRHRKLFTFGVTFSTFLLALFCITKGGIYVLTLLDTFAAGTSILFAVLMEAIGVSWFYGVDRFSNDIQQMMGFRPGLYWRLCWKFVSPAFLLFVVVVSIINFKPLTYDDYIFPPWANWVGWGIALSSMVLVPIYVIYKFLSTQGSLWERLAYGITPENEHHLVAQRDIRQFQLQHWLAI
structure (smiles),measurement,setting,value
O=C(OCCF)C1C2CCC(CC1c1ccc(/C=C\I)cc1)N2 (centres undefined),logD,[1],1.8
same,Ki,[2],28 nM
same,Ki,[3],0.08 nM
same,Ki,[4],13 nM
O=C(OCC[18F])C1C2CCC(CC1c1ccc(/C=C\I)cc1)N2 (centres undefined),Ratio,[5],3.3
same,Ratio,[6],1.6
same,Ratio,[7],4.4
same,Ratio,[8],3.8
same,Ratio,[9],2.6
same,Ratio,[10],3.3
O=C(OCCF)C1C2CCC(CC1c1ccc(/C=C\[123I])cc1)N2 (centres undefined),tissue uptake at 1 h,[11],0.26 %ID/g
same,tissue uptake at 1 h,[12],0.11 %ID/g
same,tissue uptake at 1 h,[13],0.15 %ID/g
same,Drug uptake,Cerebellum,0.24 % ID/g
same,tissue uptake at 1 h,[14],0.2 %ID/g
same,tissue uptake at 1 h,[15],0.25 %ID/g
same,tissue uptake at 1 h,[16],0.23 %ID/g
same,tissue uptake at 1 h,[17],0.12 %ID/g
same,tissue uptake at 1 h,[18],0.26 %ID/g
same,tissue uptake at 1 h,[19],0.32 %ID/g
same,tissue uptake at 1 h,[20],0.25 %ID/g
same,tissue uptake at 1 h,[21],0.22 %ID/g
same,tissue uptake at 1 h,[22],0.18 %ID/g
same,tissue uptake at 1 h,[23],0.22 %ID/g
same,tissue uptake at 1 h,[24],0.26 %ID/g
same,tissue uptake at 1 h,[25],0.27 %ID/g
same,tissue uptake at 1 h,[26],0.24 %ID/g
same,tissue uptake at 1 h,[27],0.13 %ID/g
same,tissue uptake at 1 h,[28],0.16 %ID/g
same,tissue uptake at 1 h,[29],0.24 %ID/g
same,tissue uptake at 1 h,[30],0.28 %ID/g
same,tissue uptake at 1 h,[31],0.17 %ID/g
same,tissue uptake at 1 h,[32],0.23 %ID/g
same,tissue uptake at 1 h,[33],0.14 %ID/g
same,tissue uptake at 1 h,[34],0.16 %ID/g
same,tissue uptake at 1 h,[35],0.26 %ID/g
same,tissue uptake at 1 h,[36],0.28 %ID/g
same,tissue uptake at 1 h,[37],0.24 %ID/g
same,tissue uptake at 1 h,[38],0.12 %ID/g
